Data: patent US9149035B2, “Antimicrobial composition” (CONVATEC TECHNOLOGIES, INC., priority 2005, dated 2015)
Where two headings read alike, the source gives them in different places.

Key:
[1] = system: Pseudomonas aeruginosa, Serratia marcescens, vancomycin resistant Enterococcus (VRE) and methicillin resistant Staphylococcus aureus (MRSA); settings: EDTA 0.1-40% weight by volume; planktonic and biofilm state
C. kruzei = settings: poloxamer gel (biofilm state) vs without
Ps aeruginosa [2] = settings: poloxamer gel (biofilm state) vs without
[3] = system: Seven antibiotic resistant microorganisms
Ps aeruginosa [4] = assay: Corrected zone of inhibition of hydrated wound dressings on Poloxamer gel with MHB (biofilm bacteria); assay type: cell-based; settings: bacteria grown in the biofilm state (poloxamer gel)
Excerpt: The antimicrobial dressings used in this study were ActicoatTM (Smith and Nephew) and AQUACEL® Ag Hydrofiber® (ConvaTec). Acticoat is a nanocrystalline silver antimicrobial barrier dressing which consists of a rayon/polyester non-woven inner core laminated between two layers of silver-coated high density polyethylene mesh (HDPE). The layers are held together with ultrasound […] comprised of sodium carboxymethylcellulose Hydrofiber® and ionic silver. The silver cations in AQUACEL® Ag are associated with the individual highly absorbent anionic carboxymethylcellulose fibres of the Hydrofiber® dressing. AQUACEL® Hydrofiber® dressing (without silver) was also used as a control. […] The mean dressing size was then subtracted from the mean zone of inhibition to determine the corrected zone of inhibition (CZOI). A CZOI test allows for any inherent variability in the shape and size of zones created by the silver dressings which may change in dimension following hydration.

With `O=C(O)CN(CCN(CC(=O)O)CC(=O)O)CC(=O)O` [EDTA, Ethylenediaminetetra-acetic acid] the Killing of microorganisms [1] was “effective in killing”, the “Zones of inhibition with poloxamer compared with without” value (C. kruzei) was “larger zones” and the Zones of inhibition (Serratia marcescens; 5% EDTA) was “no zones”. The Zones of inhibition (Serratia marcescens; 10% EDTA) was “no zones”, the “Zones of inhibition with poloxamer compared with without” value (Ps aeruginosa [2]) was “larger zones” and the Zones of inhibition ([3]; 0.1% EDTA, any organism studied) was “no zones of inhibition were evident”. The Zones of inhibition ([3]; 40% EDTA, all organisms tested) was “evident”, the “Zones of inhibition in the presence of poloxamer compared with planktonic” value ([3]; poloxamer gel (biofilm state) vs without) was “slightly smaller” and the “Effect of EDTA on the effects of ionic silver” value (Ps aeruginosa [4]) was “enhances”.
